{"source": "BindingDB's records for doi:10.1111/cbdd.12793", "about": "(Nanjing University, 2016)", "data": [{"molecular_target": "Tyrosine--tRNA ligase (Staphylococcus aureus (strain MSSA476), UniProt Q6G8J9)", "sequence (Q6G8J9 whole entry)": "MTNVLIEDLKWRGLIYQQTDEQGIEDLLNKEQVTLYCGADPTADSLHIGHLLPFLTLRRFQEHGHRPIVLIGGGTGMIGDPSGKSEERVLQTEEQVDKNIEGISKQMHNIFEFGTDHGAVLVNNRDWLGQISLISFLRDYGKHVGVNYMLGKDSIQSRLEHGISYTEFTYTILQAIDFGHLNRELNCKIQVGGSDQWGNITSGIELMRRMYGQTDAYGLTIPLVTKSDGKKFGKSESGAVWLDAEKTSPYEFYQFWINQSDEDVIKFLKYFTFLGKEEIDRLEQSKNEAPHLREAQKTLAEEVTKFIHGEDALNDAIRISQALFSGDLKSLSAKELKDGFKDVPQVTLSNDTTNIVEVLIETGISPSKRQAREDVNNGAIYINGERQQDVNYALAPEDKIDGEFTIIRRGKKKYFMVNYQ", "test": "In vitro Enzyme Inhibition Assay", "conditions": "pH 7.9", "description": "The assays were conducted at 37 °C in a mixture containing 100 mM Tris/Cl pH 7.9, 50 mM KCl, 16 mM MgCl2, 5 mM ATP, 3 mM DTT, 4 mg/ml E. coli MRE600 tRNA (Roche) and 10 μM L-tyrosine (0.3 μM L-[ring-3,5-3H] tyrosine (PerkinElmer, Specific activity: 1.48-2.22 TBq/mmol), 10 μM carrier). Above all, TyrRS (0.2 nM) was pre-incubated with kinds of concentrations inhibitor for 10 min (RT) followed by the addition of pre-warmed mixture and moved them together to 37 °C. After specific intervals, the reaction was ended by the addition of aliquots of the reaction mix into gelid 7% trichloroacetic acid and harvested onto […] hydrophilic Durapore filters (Millipore Multiscreen 96-well plates) and counted by liquid scintillation.", "units": {"IC50": "µM"}, "values": [{"smiles": "Cc1ncc([N+](=O)[O-])n1CCOC(=O)c1cc(-c2ccc(Cl)cc2)n(-c2ccc(Cl)cc2)n1", "note": "[2-(2-Methyl-5-nitro-1H-imidazol-1-yl)-ethyl-1,5-bis(4-chlorophenyl)-1H-pyrazole-3-carboxylate (4n)]", "IC50": 53.1}, {"smiles": "Cc1ccc(-c2cc(C(=O)OCCn3c([N+](=O)[O-])cnc3C)nn2-c2ccc(C)cc2)cc1", "note": "[2-(2-Methyl-5-nitro-1H-imidazol-1-yl)-ethyl-1,5-di-p-tolyl-1H-pyrazole-3-carboxylate (4b)]", "IC50": 31.9}, {"smiles": "Cc1ncc([N+](=O)[O-])n1CCOC(=O)c1cc(-c2ccccc2)n(-c2ccccc2)n1", "note": "[2-(2-Methyl-5-nitro-1H-imidazol-1-yl)-ethyl-1,5-diphenyl-1H-pyrazole-3-carboxylate (4r)]", "IC50": 63.1}, {"smiles": "Cc1ncc([N+](=O)[O-])n1CCOC(=O)c1cc(-c2ccccc2F)n(-c2ccc(Cl)cc2)n1", "note": "[2-(2-Methyl-5-nitro-1H-imidazol-1-yl)-ethyl-1-(4-chlorophenyl)-5-(2-fluorophenyl)-1H-pyrazole-3-carboxylate (4u)]", "IC50": 76.2}, {"smiles": "Cc1ncc([N+](=O)[O-])n1CCOC(=O)c1cc(-c2cccc(F)c2)n(-c2ccc(Cl)cc2)n1", "note": "[2-(2-Methyl-5-nitro-1H-imidazol-1-yl)-ethyl-1-(4-chlorophenyl)-5-(3-fluorophenyl)-1H-pyrazole-3-carboxylate (4y)]", "IC50": 60.1}, {"smiles": "Cc1ncc([N+](=O)[O-])n1CCOC(=O)c1cc(-c2ccc(F)cc2)n(-c2ccc(Cl)cc2)n1", "note": "[2-(2-Methyl-5-nitro-1H-imidazol-1-yl)-ethyl-1-(4-chlorophenyl)-5-(4-fluorophenyl)-1H-pyrazole-3-carboxylate (4m)]", "IC50": 64.4}, {"smiles": "Cc1ncc([N+](=O)[O-])n1CCOC(=O)c1cc(-c2ccc(I)cc2)n(-c2ccc(Cl)cc2)n1", "note": "[2-(2-Methyl-5-nitro-1H-imidazol-1-yl)-ethyl-1-(4-chlorophenyl)-5-(4-iodophenyl)-1H-pyrazole-3-carboxylate (4o)]", "IC50": 13.3}, {"smiles": "COc1ccc(-c2cc(C(=O)OCCn3c([N+](=O)[O-])cnc3C)nn2-c2ccc(Cl)cc2)cc1", "note": "[2-(2-Methyl-5-nitro-1H-imidazol-1-yl)-ethyl-1-(4-chlorophenyl)-5-(4-methoxyphenyl)-1H-pyrazole-3-carboxylate (4k)]", "IC50": 1.67}, {"smiles": "Cc1cccc(-c2cc(C(=O)OCCn3c([N+](=O)[O-])cnc3C)nn2-c2ccc(Cl)cc2)c1", "note": "[2-(2-Methyl-5-nitro-1H-imidazol-1-yl)-ethyl-1-(4-chlorophenyl)-5-(m-tolyl)-1H-pyrazole-3-carboxylate (4w)]", "IC50": 29.2}, {"smiles": "Cc1ccccc1-c1cc(C(=O)OCCn2c([N+](=O)[O-])cnc2C)nn1-c1ccc(Cl)cc1", "note": "[2-(2-Methyl-5-nitro-1H-imidazol-1-yl)-ethyl-1-(4-chlorophenyl)-5-(o-tolyl)-1H-pyrazole-3-carboxylate (4q)]", "IC50": 5.11}, {"smiles": "Cc1ccc(-c2cc(C(=O)OCCn3c([N+](=O)[O-])cnc3C)nn2-c2ccc(Cl)cc2)cc1", "note": "[2-(2-Methyl-5-nitro-1H-imidazol-1-yl)-ethyl-1-(4-chlorophenyl)-5-(p-tolyl)-1H-pyrazole-3-carboxylate (4l)]", "IC50": 18.1}, {"smiles": "Cc1ncc([N+](=O)[O-])n1CCOC(=O)c1cc(-c2ccccc2)n(-c2ccc(Cl)cc2)n1", "note": "[2-(2-Methyl-5-nitro-1H-imidazol-1-yl)-ethyl-1-(4-chlorophenyl)-5-phenyl-1H-pyrazole-3-carboxylate (4s)]", "IC50": 16.5}, {"smiles": "Cc1cccc(-c2cc(C(=O)OCCn3c([N+](=O)[O-])cnc3C)nn2-c2ccccc2)c1", "note": "[2-(2-Methyl-5-nitro-1H-imidazol-1-yl)-ethyl-1-phenyl-5-(m-tolyl)-1H-pyrazole-3-carboxylate (4v)]", "IC50": 21.6}, {"smiles": "Cc1ccccc1-c1cc(C(=O)OCCn2c([N+](=O)[O-])cnc2C)nn1-c1ccccc1", "note": "[2-(2-Methyl-5-nitro-1H-imidazol-1-yl)-ethyl-1-phenyl-5-(o-tolyl)-1H-pyrazole-3-carboxylate (4p)]", "IC50": 4.55}, {"smiles": "Cc1ccc(-c2cc(C(=O)OCCn3c([N+](=O)[O-])cnc3C)nn2-c2ccccc2)cc1", "note": "[2-(2-Methyl-5-nitro-1H-imidazol-1-yl)-ethyl-1-phenyl-5-(p-tolyl)-1H-pyrazole-3-carboxylate (4g)]", "IC50": 60.8}, {"smiles": "Cc1ncc([N+](=O)[O-])n1CCOC(=O)c1cc(-c2ccccc2F)n(-c2ccccc2)n1", "note": "[2-(2-Methyl-5-nitro-1H-imidazol-1-yl)-ethyl-5-(2-fluorophenyl)-1-phenyl-1H-pyrazole-3-carboxylate (4t)]", "IC50": 95.4}, {"smiles": "Cc1ncc([N+](=O)[O-])n1CCOC(=O)c1cc(-c2cccc(F)c2)n(-c2ccccc2)n1", "note": "[2-(2-Methyl-5-nitro-1H-imidazol-1-yl)-ethyl-5-(3-fluorophenyl)-1-phenyl-1H-pyrazole-3-carboxylate (4x)]", "IC50": 84.1}, {"smiles": "Cc1ccc(-n2nc(C(=O)OCCn3c([N+](=O)[O-])cnc3C)cc2-c2ccc(Cl)cc2)cc1", "note": "[2-(2-Methyl-5-nitro-1H-imidazol-1-yl)-ethyl-5-(4-chlorophenyl)-1-(p-tolyl)-1H-pyrazole-3-carboxylate (4d)]", "IC50": 47.8}, {"smiles": "Cc1ncc([N+](=O)[O-])n1CCOC(=O)c1cc(-c2ccc(Cl)cc2)n(-c2ccccc2)n1", "note": "[2-(2-Methyl-5-nitro-1H-imidazol-1-yl)-ethyl-5-(4-chlorophenyl)-1-phenyl-1H-pyrazole-3-carboxylate (4i)]", "IC50": 21.2}, {"smiles": "Cc1ccc(-n2nc(C(=O)OCCn3c([N+](=O)[O-])cnc3C)cc2-c2ccc(F)cc2)cc1", "note": "[2-(2-Methyl-5-nitro-1H-imidazol-1-yl)-ethyl-5-(4-fluorophenyl)-1-(p-tolyl)-1H-pyrazole-3-carboxylate (4c)]", "IC50": 56}, {"smiles": "Cc1ncc([N+](=O)[O-])n1CCOC(=O)c1cc(-c2ccc(F)cc2)n(-c2ccccc2)n1", "note": "[2-(2-Methyl-5-nitro-1H-imidazol-1-yl)-ethyl-5-(4-fluorophenyl)-1-phenyl-1H-pyrazole-3-carboxylate (4h)]", "IC50": 70}, {"smiles": "Cc1ccc(-n2nc(C(=O)OCCn3c([N+](=O)[O-])cnc3C)cc2-c2ccc(I)cc2)cc1", "note": "[2-(2-Methyl-5-nitro-1H-imidazol-1-yl)-ethyl-5-(4-iodophenyl)-1-(p-tolyl)-1H-pyrazole-3-carboxylate (4e)]", "IC50": 40.5}, {"smiles": "Cc1ncc([N+](=O)[O-])n1CCOC(=O)c1cc(-c2ccc(I)cc2)n(-c2ccccc2)n1", "note": "[2-(2-Methyl-5-nitro-1H-imidazol-1-yl)-ethyl-5-(4-iodophenyl)-1-phenyl-1H-pyrazole-3-carboxylate (4j)]", "IC50": 36.7}, {"smiles": "COc1ccc(-c2cc(C(=O)OCCn3c([N+](=O)[O-])cnc3C)nn2-c2ccc(C)cc2)cc1", "note": "[2-(2-Methyl-5-nitro-1H-imidazol-1-yl)-ethyl-5-(4-methoxyphenyl)-1-(p-tolyl)-1H-pyrazole-3-carboxylate (4a)]", "IC50": 10.8}, {"smiles": "COc1ccc(-c2cc(C(=O)OCCn3c([N+](=O)[O-])cnc3C)nn2-c2ccccc2)cc1", "note": "[2-(2-Methyl-5-nitro-1H-imidazol-1-yl)-ethyl-5-(4-methoxyphenyl)-1-phenyl-1H-pyrazole-3-carboxylate (4f)]", "IC50": 0.92}]}]}
